From ChEMBL document CHEMBL1201862, “PubChem BioAssay data set” (2004)
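Where inhibition never reached the appropriate level, the endpoint shown equals the highest concentration tested. Otherwise, values were interpolated linearly from a five-concentration, 48-hour dose response in 96-well plates. GI50 is the concentration that inhibits growth by half.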 Calls of active or inactive are those of the source. No stated cut-off is given here; in the data, active = GI50 up to about 1.1 µM and inactive = higher.

Key:
Assay in all cases: growth of human tumour cells (NCI), 48 h
[1] = system: OVCAR-8
[2] = system: MDA-MB-231
[3] = system: Hs-578T
[4] = system: IGROV-1
[5] = system: SF-268
[6] = system: COLO 205
[7] = system: 786-0
[8] = system: SW-620
[9] = system: A549
[10] = system: U-251
[11] = system: MDA-N
[12] = system: HOP-92
[13] = system: HT-29
[14] = system: SK-MEL-2
[15] = system: PC-3
[16] = system: OVCAR-4
[17] = system: CAKI-1
[18] = system: SR
[19] = system: HOP-62

Row | SMILES | GI50 [1] | GI50 [2] | GI50 [3] | GI50 [4] | GI50 [5] | GI50 [6] | GI50 [7] | GI50 [8] | GI50 [9] | GI50 [10] | GI50 [11] | GI50 [12] | GI50 [13] | GI50 [14] | GI50 [15] | GI50 [16] | GI50 [17] | GI50 [18] | GI50 [19]
1 | CC1=C2C(=O)OCC23C=COC3(C)O1 (stereo unspecified) | 35.4 µM (inactive) | 18.6 µM (inactive) | 50.4 µM (inactive) | 32.7 µM (inactive) | 60.7 µM (inactive) | 21.5 µM (inactive) | 35.6 µM (inactive) | 26.2 µM (inactive) | 66.7 µM (inactive) | 25.4 µM (inactive) | 29 µM (inactive) | 45 µM (inactive) | 29.3 µM (inactive) | 32.6 µM (inactive) | 38.2 µM (inactive) | 29.4 µM (inactive) | 37 µM (inactive) | 8.38 µM (inactive) | 34.2 µM (inactive)
2 | O=C(c1ccco1)N(C(=S)OC12CC3CC(CC(C3)C1)C2)c1ccccc1 | 31.3 µM (inactive) | 31.8 µM (inactive) | 32.6 µM (inactive) |  | 32.9 µM (inactive) | 16.4 µM (inactive) | 31.2 µM (inactive) | 29 µM (inactive) | 32.2 µM (inactive) | 23.3 µM (inactive) | 29.4 µM (inactive) | 19.5 µM (inactive) | 33.5 µM (inactive) | 21.2 µM (inactive) | 20.5 µM (inactive) | 36.1 µM (inactive) | 33.3 µM (inactive) | 25.7 µM (inactive) | 28.2 µM (inactive)
3 | O=C1Nc2ccccc2/C1=C\c1c(Cl)n(-c2ccccc2)c2ccccc12 | 2.71 µM (inactive) | 3.03 µM (inactive) | 0.851 µM (active) | 2.75 µM (inactive) | 0.832 µM (active) | 1.61 µM (inactive) | 2.67 µM (inactive) | 2.47 µM (inactive) | 3.52 µM (inactive) | 3.48 µM (inactive) | 1.14 µM (inactive) | 0.946 µM (active) | 2.43 µM (inactive) | 8.69 µM (inactive) | 3.78 µM (inactive) | 5.02 µM (inactive) | 2.49 µM (inactive) | 2.96 µM (inactive) | 4.68 µM (inactive)
4 | COc1c(-c2nc3ccc(N4CCN(C)CC4)cc3[nH]2)cc(OC)c2[nH]c(COC(C)=O)nc12 | 55.1 µM (inactive) | 34.2 µM (inactive) | > 100 µM (inactive) | > 100 µM (inactive) | 94.8 µM (inactive) | 50.1 µM (inactive) | 36.6 µM (inactive) | 40.2 µM (inactive) | 62.1 µM (inactive) | 48.3 µM (inactive) | 40.4 µM (inactive) | > 100 µM (inactive) | 36.7 µM (inactive) | 45.9 µM (inactive) | 37.1 µM (inactive) | 29.8 µM (inactive) | > 100 µM (inactive) | 27.8 µM (inactive) | 67.1 µM (inactive)
5 | C=C1CC(Cn2ccc(=O)[nH]c2=O)(c2ccc(-c3ccccc3)cc2)OC1=O (stereo unspecified) | 2.62 µM (inactive) | 1.98 µM (inactive) | 3.7 µM (inactive) | 1.04 µM (active) | 16.1 µM (inactive) | 0.441 µM (active) | 0.619 µM (active) | 0.257 µM (active) | 11.1 µM (inactive) | 12.1 µM (inactive) | 1.03 µM (active) | 1.2 µM (inactive) | 0.938 µM (active) | 2.09 µM (inactive) | 3.2 µM (inactive) | 2.1 µM (inactive) | 1.16 µM (inactive) | 0.995 µM (active) | 15.2 µM (inactive)
6 | O=[N+]([O-])c1ccc(S[C@@H]2[C@H]3c4c(-c5ccccc5)[nH]c(-c5ccccc5)c4[C@@H]2C[C@H]3Cl)cc1 | 4.38 µM (inactive) | 4.8 µM (inactive) | 5.08 µM (inactive) | 2.79 µM (inactive) | 2.68 µM (inactive) | 6.17 µM (inactive) | 2.62 µM (inactive) | 3.37 µM (inactive) | 2.74 µM (inactive) | 4.17 µM (inactive) | 2.89 µM (inactive) | 0.895 µM (active) | 3.37 µM (inactive) | 11.2 µM (inactive) | 3.8 µM (inactive) | 1.6 µM (inactive) | 3.38 µM (inactive) | 1.14 µM (inactive) | 3.56 µM (inactive)
7 | OC(c1ccc(-c2ccccc2)cc1)C(F)(F)c1nc2ccccc2o1 (stereo unspecified) | 34.8 µM (inactive) | 17.5 µM (inactive) | 20.9 µM (inactive) | 34 µM (inactive) | 54.5 µM (inactive) | > 74 µM (inactive) | 25.9 µM (inactive) | > 100 µM (inactive) | 40.4 µM (inactive) | 30.7 µM (inactive) | > 100 µM (inactive) | 29.9 µM (inactive) | > 68.1 µM (inactive) | > 100 µM (inactive) | 65.9 µM (inactive) | 18.6 µM (inactive) | 25.1 µM (inactive) | 25.9 µM (inactive) | 30.7 µM (inactive)
8 | O=[N+]([O-])c1ccc(S(=O)(=O)N=Ic2ccccc2)cc1 | > 100 µM (inactive) | > 100 µM (inactive) | > 100 µM (inactive) | > 100 µM (inactive) | > 100 µM (inactive) | > 100 µM (inactive) | > 100 µM (inactive) | > 100 µM (inactive) | > 100 µM (inactive) | > 100 µM (inactive) | > 100 µM (inactive) | > 100 µM (inactive) | > 100 µM (inactive) | > 100 µM (inactive) | > 100 µM (inactive) | > 100 µM (inactive) | > 100 µM (inactive) | > 100 µM (inactive) | > 100 µM (inactive)
9 | Clc1ccc(-c2nnc3sc4nc5ccccc5c-4nn23)c(Cl)c1 | 50 µM (inactive) | 99.3 µM (inactive) | 21.7 µM (inactive) |  | 33.7 µM (inactive) | 56.4 µM (inactive) | 52.6 µM (inactive) | 46 µM (inactive) | 41.7 µM (inactive) | 36.6 µM (inactive) | 28.6 µM (inactive) | 19.1 µM (inactive) | 55.7 µM (inactive) | 30.6 µM (inactive) | 43.3 µM (inactive) | 42 µM (inactive) | 34.7 µM (inactive) | 44.9 µM (inactive) | 67 µM (inactive)
10 | NC(=S)NNCC(=O)CC(O)(C(F)(F)F)C(F)(F)Cl (stereo unspecified) | > 100 µM (inactive) | > 100 µM (inactive) | > 100 µM (inactive) | > 100 µM (inactive) |  | > 100 µM (inactive) | > 100 µM (inactive) | > 100 µM (inactive) | > 100 µM (inactive) | > 100 µM (inactive) | > 100 µM (inactive) | > 100 µM (inactive) | > 100 µM (inactive) | > 100 µM (inactive) | > 100 µM (inactive) | > 100 µM (inactive) | > 100 µM (inactive) | > 100 µM (inactive) | 
11 | CC(=O)O[C@H]1C(=O)[C@@]2(C)[C@H]([C@H](OC(=O)c3ccccc3)[C@]3(O)C[C@H](OC(=O)[C@H](O)[C@@H](NC(=O)c4ccc(N(C)C)cc4)c4ccccc4)C(C)=C1C3(C)C)[C@]1(OC(C)=O)CO[C@@H]1C[C@@H]2O | < 0.005 µM (active) | 0.0543 µM (active) | < 0.005 µM (active) | 0.00962 µM (active) |  | < 0.005 µM (active) | < 0.005 µM (active) | < 0.005 µM (active) | < 0.005 µM (active) | < 0.005 µM (active) | < 0.005 µM (active) | > 28.8 µM (inactive) | < 0.005 µM (active) | 0.05 µM (active) | < 0.005 µM (active) | 2.92 µM (inactive) | 0.339 µM (active) | < 0.005 µM (active) | 0.0136 µM (active)
12 | CC(C)C[C@H](NC(=O)[C@H](Cc1cccc2ccccc12)NS(=O)(=O)c1cccc2cccnc12)B(O)O | 0.0557 µM (active) | < 0.0149 µM (active) | < 0.0199 µM (active) | < 0.0208 µM (active) |  | < 0.0243 µM (active) | 0.0222 µM (active) | < 0.0176 µM (active) | 0.0435 µM (active) | 0.0264 µM (active) | < 0.01 µM (active) | 0.00726 µM (active) | < 0.0165 µM (active) | < 0.0158 µM (active) | < 0.0272 µM (active) | 0.0109 µM (active) | 0.0923 µM (active) | < 0.0167 µM (active) | 0.0444 µM (active)
13 | CC(C)=CCC/C(C)=C/CC/C(C)=C/CC/C(C=O)=C/CC/C(C)=C\CC/C(C)=C/CC/C(C)=C/CC/C(C)=C/CC1=CC(=O)C=CC1=O | 46.5 µM (inactive) | > 100 µM (inactive) | 62.4 µM (inactive) | 31.8 µM (inactive) | > 100 µM (inactive) | 73.8 µM (inactive) | 67 µM (inactive) | > 100 µM (inactive) | > 100 µM (inactive) | 69.7 µM (inactive) | > 100 µM (inactive) | > 100 µM (inactive) |  | 31.8 µM (inactive) | > 100 µM (inactive) | > 100 µM (inactive) | 33 µM (inactive) | > 100 µM (inactive) | > 100 µM (inactive)
14 | CCc1nc(N)c2nc(-c3cccs3)oc2n1 | > 100 µM (inactive) | > 100 µM (inactive) | 45.3 µM (inactive) | 69.7 µM (inactive) | > 100 µM (inactive) | > 100 µM (inactive) | > 100 µM (inactive) | > 100 µM (inactive) | > 100 µM (inactive) | > 100 µM (inactive) | > 100 µM (inactive) | > 100 µM (inactive) | > 100 µM (inactive) | > 100 µM (inactive) | > 100 µM (inactive) |  | > 100 µM (inactive) | 54.8 µM (inactive) | > 100 µM (inactive)
15 | O=C(O)CN1CCN2CCCCCN(CC1)CCN(CC(=O)O)CC2 | > 100 µM (inactive) | > 100 µM (inactive) | 31.8 µM (inactive) | > 100 µM (inactive) |  | > 100 µM (inactive) | > 100 µM (inactive) | 83.9 µM (inactive) | > 100 µM (inactive) | > 100 µM (inactive) | > 100 µM (inactive) | > 100 µM (inactive) | 31.2 µM (inactive) | > 100 µM (inactive) | > 100 µM (inactive) | > 100 µM (inactive) | > 100 µM (inactive) | 45.1 µM (inactive) | > 100 µM (inactive)
